The test system of test [1] is HEK293 cells cotransfected with the FOP control vector. Description: HEK293 FOP assay (control reporter with non-functional TCF elements). Type of test: cell-based. The conditions noted are these: Homo sapiens, 16 hours. Summed up:
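Stable HEK293 line carrying FOP control reporter (randomized non-functional TCF sites, with pcDNA3), Geneticin-selected, plated 24 h before assay. Stimulated with recombinant human Wnt-3a (2500-5 ng/ml) and compounds 50 μM–15 nM (3.16-fold steps) in CAFTY buffer pH 7.4 with 2 mM Ca2+, 0.01% BSA, run parallel to TOP line.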

Test [2] deals with T1, TNKS1 (Homo sapiens, UniProt O95271).
T1 construct: purchased BPS Bioscience, San Diego, USA 80579 (TNKS1 Histone Ribosylation Assay Kit)
T1 sequence (O95271 1-1327): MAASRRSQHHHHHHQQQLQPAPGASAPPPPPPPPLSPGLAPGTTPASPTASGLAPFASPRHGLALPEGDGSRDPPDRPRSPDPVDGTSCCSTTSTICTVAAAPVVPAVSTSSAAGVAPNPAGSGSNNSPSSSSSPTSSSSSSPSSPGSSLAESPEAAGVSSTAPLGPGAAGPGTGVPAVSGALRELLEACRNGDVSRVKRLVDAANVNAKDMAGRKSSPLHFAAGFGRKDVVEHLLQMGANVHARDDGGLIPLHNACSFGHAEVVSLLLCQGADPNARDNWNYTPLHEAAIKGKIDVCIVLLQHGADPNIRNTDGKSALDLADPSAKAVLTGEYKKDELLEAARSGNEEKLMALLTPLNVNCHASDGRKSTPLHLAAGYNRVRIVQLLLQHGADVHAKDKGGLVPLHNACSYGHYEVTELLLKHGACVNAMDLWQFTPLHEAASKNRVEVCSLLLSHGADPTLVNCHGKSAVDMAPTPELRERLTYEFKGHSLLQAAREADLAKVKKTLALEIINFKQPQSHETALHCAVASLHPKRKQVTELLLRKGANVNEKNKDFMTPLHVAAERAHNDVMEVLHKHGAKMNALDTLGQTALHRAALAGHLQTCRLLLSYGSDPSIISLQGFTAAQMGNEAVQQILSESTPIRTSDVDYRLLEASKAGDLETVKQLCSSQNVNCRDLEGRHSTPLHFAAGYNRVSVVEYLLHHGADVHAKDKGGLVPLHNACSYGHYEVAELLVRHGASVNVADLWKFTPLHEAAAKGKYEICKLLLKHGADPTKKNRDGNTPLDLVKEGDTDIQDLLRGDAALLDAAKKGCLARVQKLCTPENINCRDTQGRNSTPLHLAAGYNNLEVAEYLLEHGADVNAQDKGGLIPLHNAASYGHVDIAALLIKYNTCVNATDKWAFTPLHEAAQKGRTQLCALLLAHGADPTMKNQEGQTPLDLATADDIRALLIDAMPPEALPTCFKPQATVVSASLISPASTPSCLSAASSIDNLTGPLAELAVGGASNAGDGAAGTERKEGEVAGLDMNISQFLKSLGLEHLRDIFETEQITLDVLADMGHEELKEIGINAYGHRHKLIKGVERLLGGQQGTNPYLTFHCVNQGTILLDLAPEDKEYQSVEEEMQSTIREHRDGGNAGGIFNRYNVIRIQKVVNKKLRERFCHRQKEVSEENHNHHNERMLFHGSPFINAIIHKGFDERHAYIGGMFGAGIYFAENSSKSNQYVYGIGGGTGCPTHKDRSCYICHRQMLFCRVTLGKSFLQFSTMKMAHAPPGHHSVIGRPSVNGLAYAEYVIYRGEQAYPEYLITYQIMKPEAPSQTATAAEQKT
In words: TNKS1 Assay B (auto-parsylation, [3H]-NAD+ SPA). To be noted: 6 nM TNKS1, auto-parsylation, over night at room temperature. In kind it is biochemical.

Turning to `Cc1cc(C)n2ncc(C(=O)NC34CCC(C(=O)Nc5c(F)cc(F)cc5Cl)(CC3)CC4)c2n1` [Example 127, N-{4-[(2-chloro-4,6-difluorophenyl)carbamoyl]bicyclo[2.2.2]oct-1-yl}-5,7-dimethylpyrazolo[1,5-a]pyrimidine-3-carboxamide], the IC50 in test [1] was no less than 50 µM; in test [2] it was 320 nM.

For `Cc1cc(C)n2ncc(C(=O)NC34CCC(C(=O)Nc5cnccc5Cl)(CC3)CC4)c2n1` [Example 128, N-{4-[(4-chloropyridin-3-yl)carbamoyl]bicyclo[2.2.2]oct-1-yl}-5,7-dimethylpyrazolo[1,5-a]pyrimidine-3-carboxamide], the IC50 in test [1] is no less than 50 µM; in test [2], 88 nM.

`O=C(NCC1CCCO1)c1nc[nH]c1C(=O)N[C@H]1CC[C@H](C(=O)Nc2cc(F)ccc2Cl)CC1` (stereo partly drawn) [Example 129, N^5-{trans-4-[(2-chloro-5-fluorophenyl)carbamoyl]cyclohexyl}-N^4-(tetrahydrofuran-2-ylmethyl)-1H-imidazole-4,5-dicarboxamide]: the figures for the IC50 in test [1] and in test [2] were 39 µM and 45 nM, respectively.

Regarding `O=C(N[C@H]1CC[C@H](C(=O)Nc2cc(F)c(F)cc2Cl)CC1)c1cnn2cccnc12` [Example 130, N-{trans-4-[(2-chloro-4,5-difluorophenyl)carbamoyl]cyclohexyl}pyrazolo[1,5-a]pyrimidine-3-carboxamide], the IC50 in test [1] was no less than 50 µM; in test [2], 34 nM.

As to `O=C(N[C@H]1CC[C@H](C(=O)Nc2cc(F)c(F)cc2Cl)CC1)c1cnc2cccnn12` [Example 132, N-{trans-4-[(2-chloro-4,5-difluorophenyl)carbamoyl]cyclohexyl}imidazo[1,2-b]pyridazine-3-carboxamide], the values for the IC50 in test [1] and in test [2] were no less than 50 µM and 64 nM, respectively.

Consider `O=C(N[C@H]1CC[C@H](C(=O)Nc2c(F)cc(F)cc2Cl)CC1)c1cnc2cccnn12` [Example 133, N-{trans-4-[(2-chloro-4,6-difluorophenyl)carbamoyl]cyclohexyl}imidazo[1,2-b]pyridazine-3-carboxamide], for which the results for the IC50 in test [1] and in test [2] were no less than 50 µM and 140 nM, respectively.

Regarding `Cc1cc(C)n2ncc(C(=O)N[C@H]3CC[C@H](C(=O)Nc4cc(F)c(F)cc4Cl)CC3)c2n1` [Example 134, N-{trans-4-[(2-chloro-4,5-difluorophenyl)carbamoyl]cyclohexyl}-5,7-dimethylpyrazolo[1,5-a]pyrimidine-3-carboxamide], the IC50 in test [1] is no less than 50 µM; in test [2] it was 74 nM.

Take `Cc1cc(C)n2ncc(C(=O)N[C@H]3CC[C@H](C(=O)Nc4c(F)cc(F)cc4Cl)CC3)c2n1` [Example 135, N-{trans-4-[(2-chloro-4,6-difluorophenyl)carbamoyl]cyclohexyl}-5,7-dimethylpyrazolo[1,5-a]pyrimidine-3-carboxamide]: the IC50 is no less than 50 µM in test [1] and 48 nM in test [2].

Regarding `O=C(N[C@H]1CC[C@@]2(CCN(c3ccc(F)cc3Cl)C2=O)CC1)c1cnn2cccnc12` [Example 136, N-[(trans)-2-(2-chloro-4-fluorophenyl)-1-oxo-2-azaspiro[4.5]dec-8-yl]pyrazolo[1,5-a]pyrimidine-3-carboxamide], the values for the IC50 in test [1] and in test [2] were no less than 50 µM and 13 nM, respectively.

Turning to `Cc1cnc2c(C(=O)N[C@H]3CC[C@@]4(CCN(c5ccc(F)cc5Cl)C4=O)CC3)cnn2c1` [Example 137, N-[(trans)-2-(2-chloro-4-fluorophenyl)-1-oxo-2-azaspiro[4.5]dec-8-yl]-6-methylpyrazolo[1,5-a]pyrimidine-3-carboxamide], the IC50 in test [1] was no less than 50 µM; in test [2], 11 nM.

Consider `O=C(N[C@H]1CC[C@@]2(CCN(c3ccc(F)cc3Cl)C2=O)CC1)c1cnc2cccnn12` [Example 138, N-[(trans)-2-(2-chloro-4-fluorophenyl)-1-oxo-2-azaspiro[4.5]dec-8-yl]imidazo[1,2-b]pyridazine-3-carboxamide], for which the values for the IC50 in test [1] and in test [2] were no less than 50 µM and 22 nM, respectively.

For the compound `Cc1cc(C)n2ncc(C(=O)N[C@H]3CC[C@@]4(CCN(c5ccc(F)cc5Cl)C4=O)CC3)c2n1` [Example 139, N-[(trans)-2-(2-chloro-4-fluorophenyl)-1-oxo-2-azaspiro[4.5]dec-8-yl]-5,7-dimethylpyrazolo[1,5-a]pyrimidine-3-carboxamide], the IC50 in test [1] was no less than 50 µM; in test [2], 11 nM.

`CNC(=O)c1[nH]cnc1C(=O)N[C@H]1CC[C@@]2(CCN(c3ccc(F)cc3Cl)C2=O)CC1` [Example 140, N^4-[(trans)-2-(2-chloro-4-fluorophenyl)-1-oxo-2-azaspiro[4.5]dec-8-yl]-N^5-methyl-1H-imidazole-4,5-dicarboxamide]: the IC50 in test [1] is no less than 50 µM; in test [2], 12 nM.

`CCNC(=O)c1[nH]cnc1C(=O)N[C@H]1CC[C@@]2(CCN(c3ccc(F)cc3Cl)C2=O)CC1` [Example 141, N^4-[(trans)-2-(2-chloro-4-fluorophenyl)-1-oxo-2-azaspiro[4.5]dec-8-yl]-N^5-ethyl-1H-imidazole-4,5-dicarboxamide]: the 50% inhibitory concentration (IC50) in test [1] was no less than 50 µM; in test [2], 11 nM.

As to `CNC(=O)c1nc[nH]c1C(=O)N[C@H]1CC[C@H](C(=O)Nc2cc(C(F)(F)F)ccc2Cl)CC1` [Example 142, N^5-(trans-4-{[2-chloro-5-(trifluoromethyl)phenyl]carbamoyl}cyclohexyl)-N^4-methyl-1H-imidazole-4,5-dicarboxamide], the IC50 in test [1] was found to be 41 µM; in test [2], 93 nM.

Take `COCC(C)NC(=O)c1nc[nH]c1C(=O)N[C@H]1CC[C@H](C(=O)Nc2cc(C(F)(F)F)ccc2Cl)CC1` (stereo partly drawn) [Example 143, N^5-(trans-4-{[2-chloro-5-(trifluoromethyl)phenyl]carbamoyl}cyclohexyl)-N^4-(1-methoxypropan-2-yl)-1H-imidazole-4,5-dicarboxamide]: the figures for the IC50 in test [1] and in test [2] were 33 µM and 210 nM, respectively.

`COC(C)(C)CNC(=O)c1nc[nH]c1C(=O)N[C@H]1CC[C@H](C(=O)Nc2cc(C(F)(F)F)ccc2Cl)CC1` [Example 144, N^5-(trans-4-{[2-chloro-5-(trifluoromethyl)phenyl]carbamoyl}cyclohexyl)-N^4-(2-methoxy-2-methylpropyl)-1H-imidazole-4,5-dicarboxamide]: the IC50 came to 25 µM in test [1] and 190 nM in test [2].

As to `CC(C)(O)CNC(=O)c1nc[nH]c1C(=O)N[C@H]1CC[C@H](C(=O)Nc2cc(C(F)(F)F)ccc2Cl)CC1` [Example 145, N^5-(trans-4-{[2-chloro-5-(trifluoromethyl)phenyl]carbamoyl}cyclohexyl)-N^4-(2-hydroxy-2-methylpropyl)-1H-imidazole-4,5-dicarboxamide], the IC50 was 15 µM in test [1] and 330 nM in test [2].

Turning to `O=C(NCC1CCCO1)c1nc[nH]c1C(=O)N[C@H]1CC[C@H](C(=O)Nc2cc(C(F)(F)F)ccc2Cl)CC1` (stereo partly drawn) [Example 146, N^5-(trans-4-{[2-chloro-5-(trifluoromethyl)phenyl]carbamoyl}cyclohexyl)-N^4-(tetrahydrofuran-2-ylmethyl)-1H-imidazole-4,5-dicarboxamide], the IC50 in test [1] is 29 µM; in test [2] it was 150 nM.

Regarding `CNC(=O)c1nc[nH]c1C(=O)N[C@H]1CC[C@H](C(=O)Nc2ncncc2Cl)CC1` [Example 147, N^5-{trans-4-[(5-chloropyrimidin-4-yl)carbamoyl]cyclohexyl}-N^4-methyl-1H-imidazole-4,5-dicarboxamide], the IC50 is no less than 50 µM in test [1] and 150 nM in test [2].

By IC50 is commonly meant the concentration at which inhibition is half-maximal. Lower therefore signals inhibition by little substance.

These data come from US20180148418A1, “AMIDO-SUBSTITUTED CYCLOHEXANE DERIVATIVES” (Bayer Pharma Aktiengesellschaft, priority 2015, published 2018).
